The text below walks through data of patent publication US6833372B2, “Non-peptide GnRH agents, Pharmaceutical compositions, and methods for their use” (Pfizer, Inc., priority 2002, dated 2004).

Data set [1] in a line: In vitro metabolism: disappearance of parent compound in human liver microsomes. The settings on record: 5 uM compound, 0.5 mg/ml protein, 2 mM NADPH, 30 minutes 37° C. Format: in vitro ADME. The essentials:
(§1)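 Microsomes from human, rat (male, female), dog and monkey liver incubated with 5 uM compound, 0.5 mg/ml protein and 2 mM NADPH in 50 mM K phosphate, pH 7.4, for 30 min at 37° C. Reaction stopped with acetonitrile; parent compound remaining measured by LC-MS.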
A general note: Liver microsomes are a subcellular fraction often used to study metabolism.

Data set [2] can be described thus: In vitro metabolism: disappearance of parent compound in dog liver microsomes. Particulars: 5 uM compound, 30 minutes 37° C. Format: in vitro ADME. The method in brief:
as §1

For data set [3], the target named is T1, human GnRH receptors (Homo sapiens, UniProt P30968).
T1 construct: expressed in transfected cells; host or cells: HEK 293 cells, stably transfected; membranes
T1 sequence (P30968 1-328): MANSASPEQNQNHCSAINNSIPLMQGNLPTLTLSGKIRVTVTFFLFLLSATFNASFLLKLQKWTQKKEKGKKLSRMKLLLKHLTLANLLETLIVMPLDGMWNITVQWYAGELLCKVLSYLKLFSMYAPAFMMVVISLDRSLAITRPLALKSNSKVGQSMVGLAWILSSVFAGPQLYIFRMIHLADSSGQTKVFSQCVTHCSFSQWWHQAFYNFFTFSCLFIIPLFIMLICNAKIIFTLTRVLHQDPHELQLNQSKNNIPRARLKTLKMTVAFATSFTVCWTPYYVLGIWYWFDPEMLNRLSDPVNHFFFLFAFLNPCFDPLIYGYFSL
As to the kind of experiment: Radioligand binding: inhibition of 125I-GnRH-A binding to human GnRH receptor membranes. The settings on record: HEK 293 cell membranes. The essentials:
(§2)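 Membranes from rat pituitaries, or HEK 293 cells stably expressing mouse or human receptor, incubated 1 hour at room temperature with ~0.04-0.06 nM radioligand (HEPES pH 7.4, EDTA, MgCl2, BSA) and competitor at 0.1-10,000 nM. Bound ligand collected by GF/C filtration and counted; Ki derived from IC50 by Cheng-Prusoff.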

Data set [4] in a line: In vitro metabolism: disappearance of parent compound in monkey liver microsomes. The data set is classed as in vitro ADME. Particulars: 5 uM compound, 30 minutes 37° C. The method in brief: as §1
Data set [5] concerns the target T2, rat GnRH receptor (Rattus norvegicus, UniProt P30969).
T2 construct: or rat pituitaries (Pel Freez Biologicals, Rogers, Ark.) were homogenized; tissue Pel Freez Biologicals; host or cells: rat pituitaries (membrane preparation)
T2 sequence (P30969 1-327): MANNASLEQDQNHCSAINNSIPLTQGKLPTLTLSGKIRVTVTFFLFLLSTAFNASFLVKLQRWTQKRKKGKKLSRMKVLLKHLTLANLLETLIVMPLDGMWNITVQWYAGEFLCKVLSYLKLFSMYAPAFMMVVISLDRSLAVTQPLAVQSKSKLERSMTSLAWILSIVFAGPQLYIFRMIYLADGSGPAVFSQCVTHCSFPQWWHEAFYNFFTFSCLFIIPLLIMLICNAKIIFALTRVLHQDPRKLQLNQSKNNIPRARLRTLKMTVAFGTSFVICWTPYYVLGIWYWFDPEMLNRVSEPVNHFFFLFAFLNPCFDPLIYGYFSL
Description: Radioligand binding: inhibition of 125I-GnRH-A binding to rat GnRH receptor (rat pituitary membranes). Particulars: read-out: Ki (nM), Inhibition Binding of 125I-GnRH-A to GnRH Receptors. The method in brief:
as §2

For data set [6], the target named is T3, mouse GnRH receptors (Mus musculus, UniProt Q01776).
T3 construct: expressed in transfected cells; host or cells: HEK 293 cells, stably transfected; membranes
T3 sequence (Q01776 1-327): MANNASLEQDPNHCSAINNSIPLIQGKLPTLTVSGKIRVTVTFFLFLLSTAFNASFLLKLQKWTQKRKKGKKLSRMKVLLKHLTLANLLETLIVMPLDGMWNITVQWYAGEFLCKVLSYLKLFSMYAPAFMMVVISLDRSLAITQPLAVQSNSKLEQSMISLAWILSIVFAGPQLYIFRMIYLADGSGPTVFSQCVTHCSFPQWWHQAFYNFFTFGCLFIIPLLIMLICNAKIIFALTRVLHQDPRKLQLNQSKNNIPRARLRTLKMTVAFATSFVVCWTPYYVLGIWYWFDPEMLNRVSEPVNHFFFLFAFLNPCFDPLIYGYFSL
As to the kind of experiment: Radioligand binding: inhibition of 125I-GnRH-A binding to mouse GnRH receptor membranes. The settings on record: HEK 293 cell membranes. As for the experimental part: HEK 293 cells stably transfected with mouse or human GnRH receptors as described above were grown in Dulbecco's high-glucose, modified Eagle's medium (DMEM) supplemented with 0.2% G418, 10% fetal bovine serum (FBS) and 100 U/mL penicillin/streptomycin. GH3 cells stably transfected with the rat GnRH receptor (GGH3) were provided by Dr. William Chin (Harvard Medical School, Boston, Mass.). These cells have been extensively characterized previously (Kaiser et al., 1997). The cells were grown in low glucose DMEM containing: 100U/mL penicillin/streptomycin, 0.6% G418 and 10% heat-inactivated FBS.
HEK 293 cells containing mouse or human receptors, or rat pituitaries (Pel Freez Biologicals, Rogers, Ark.) were homogenized in buffer A containing: 50 mM Tris (pH 7.4), 0.32 M sucrose, 2 mM EGTA, 1 mM PMSF, 5 μg/ml aprotinen, 5 μg/ml Pepstatin A, and 1 μg/ml leupeptin. Homogenized cells were centrifuged at 4° C. at 20,000×g for 25 minutes, re-suspended in buffer A and re-centrifuged at 4° C. at 20,000×g for an additional 25 minutes. Total membrane protein was determined with a BCA kit (Pierce, Rockford, Ill.). Membranes were stored at −70° C. at a final membrane protein concentration of approximately 5 mg/ml.
The radioiodinated agonist analog of GnRH, [des-Gly^10,D-Ala^6]GnRH ethylamide (^125I-GnRH-A), was used as the radioligand. […] The reaction mixture was vortexed and incubated for 1 minute at room temperature. After one minute, the mixture was vortexed and allowed to incubate for an additional minute. 2 ml of 0.5 M acetic acid/1% BSA was added to the reaction tube and the mixture was added to a C18 Sep-Pak cartridge. The cartridge was washed with subsequent washes of 5 ml H2O and 5 ml 0.5 M acetic acid and then eluted with 5×1 ml of 60% CH3CN/40% 0.5 M acetic acid. The eluate was diluted with 3× volume of HPLC buffer A (0.1% TFA in H2O) and loaded onto a C18 column. The iodinated product was eluted over 20-25 min with a gradient of 25-100% CH3CN containing 0.1% TFA. The radioactive fractions (750 μl/fraction) were collected into clean polypropylene tubes containing 100 μl of 10% BSA. Fractions were assessed for biological activity by radioligand binding. Specific activity of the radioligand was approximately 2200 Ci/mmol.
Membranes were diluted to 0.01-0.5 mg/ml (depending upon the species of receptor) with assay buffer containing 50 mM HEPES (pH 7.4), 1 mM EDTA, 2.5 mM MgCl2, and 0.1% BSA. Membranes (diluted to utilize similar receptor numbers between assays) were incubated with approximately 0.04-0.06 nM ^125I-GnRH-A in the presence or absence of competing agents (0.1-10,000 nM) in a total volume of 200 μl in 96-well polypropylene plates for 1 hour at room temperature. Assays were stopped by rapid filtration onto 96-well GF/C filters soaked in 0.1% polyethylenimine (PEI) utilizing a Packard 96-well cell harvester. Filters were washed three times with ice-cold PBS (50 mM NaPO4, 0.9% NaCl, 2 mM MgCl2, and 0.02% NaN3, pH 7.4). 35 μl of scintillation cocktail was added to each filter well and filters were counted on a Packard Topcount. Control dose-response curves were generated to GnRH (0.1 nM-100 nM) in each competition binding experiment. Ki values were calculated from IC50 values according to Cheng et al., Biochemical Pharmacol. 22: 3099-3108, 1973. [formula]

The nature of data set [7]: Rat plasma % remain. The data set is classed as in vitro ADME.
Data set [8] can be described thus: Solubility at pH2 and pH6. Format: physicochemical.
Data set [9] can be described thus: In vitro metabolism: disappearance of parent compound in rat liver microsomes (male, female). Format: in vitro ADME. Particulars: 5 uM compound, 30 minutes 37° C. The essentials: as §1
Data set [10] has as its target T4, GGH3 cells (GH3 cells stably transfected with the rat GnRH receptor) (Rattus norvegicus, UniProt P30969).
T4 construct: host or cells: GH3 cells stably transfected (GGH3), whole cells
T4 sequence (P30969 1-327): T2 sequence (P30969 1-327)
Description: Effect of compounds on 125I-GnRH-A binding to GGH3 cells (competition radioligand binding, whole cells). Particulars: on ice 2 hr.
Description: Cell Culture. GGH3 cells (Dr. William Chin, Harvard Medical School, Boston, Mass.) are grown in low glucose Dulbecco's modified Eagle's medium (DMEM) containing 100 U/mL penicillin/streptomycin, 0.6 g/L G418 and 10% heat-inactivated FBS.
The reaction mixture is vortexed and incubated for 1 min at room temperature. Two; ml of 0.5 M acetic acid is added to the reaction tube and the mixture is added to a C18 Sep-Pak cartridge: The cartridge is washed with subsequent washes of 5 ml H2O and 5 ml 0.5M acetic acid and then eluted with 5×1 ml of 60% CH3CN/40% 0.5M acetic acid. The eluate is diluted with 3× volume of HPLC buffer A (0.1% TFA in H2O) and loaded onto a C18 column. The iodinated product is eluted over 20-25 min with a gradient of 25-100% CH3CN containing 0.1% TFA. The radioactive fractions (750 μl/fraction) are collected into clean polypropylene tubes containing 100 μl of 10% BSA. Fractions are assessed for biological activity by radioligand binding.
Reactions are performed on ice for 2 hr and stopped by the addition of 2 ml of ice-cold PBS wash buffer (50 mM NaPO4, 0.9% NaCl, 2 mM MgCl2, and 0.02% NaN3, pH 7.4) and rapid filtration onto GF/C filters presoaked with 0.05% polyethylenimine utilizing a Brandel cell harvester. Filters are counted on a gamma counter. […]

Converted amounts (≈) assume the structure as drawn. Like-named read-outs stand apart in the source and are kept apart here.

Broadly, the Ki is the dissociation constant of the complex between target and ligand, obtained from inhibition or displacement.

For the compound `CNc1nc(OC)c(NC(=O)c2ccc(Cc3cc4c(cc3C)C(C)(C)CCC4(C)C)o2)c(OC)n1` [Example B1, 5-(3,5,5,8,8-Pentamethyl-5,6,7,8-tetrahydro-naphthalen-2-ylmethyl)-furan-2-carboxylic Acid (4,6-dimethoxy-2-methylamino-pyrimidin-5-yl)-amide], in [1], the “Human % rem. 30′” value turned out to be 54%. Also, the “Dog % rem. 30′” value in data set [2] was determined as 2%. Also, the Ki in data set [3] came to 1 nM; in data set [5], 0.79 nM; in data set [6], 0.75 nM. The Monkey % rem. in data set [4] turned out to be 0%. Also, the “Rat plasma % remain” value in [7] is 100%. The solubility is 1.2 µg/mL (≈ 2.44 µM) in data set [8] (pH 2, simulated gastric fluid, pH2, read-out: Solubility μg/ml pH2) and 0.4 µg/mL (≈ 0.812 µM) in data set [8] (pH 6, aqueous buffer, pH6, read-out: Solubility μg/ml pH6). Also, the “Fem. Rat (FR) % rem. 30′” value in data set [9] (female rat liver microsomes) was found to be 94%. Besides, the “Male Rat (MR) % rem. 30′” value in data set [9] (male rat liver microsomes) was 1%.

Turning to `COc1nc(N2CCOCC2)nc(OC)c1NC(=O)c1ccc(Cc2cc3c(cc2C)C(C)(C)CCC3(C)C)o1` [Example B3, 5-(3,5,5,8,8-Pentamethyl-5,6,7,8-tetrahydro-naphthalen-2-ylmethyl)-furan-2-carboxylic Acid (4,6-dimethoxy-2-morpholin-4-yl-pyrimidin-5-yl)-amide], the values for the Ki in data set [3], in [5] and in data set [6] were 4.7 nM, 14 nM and 5.3 nM, respectively.

As for `COc1nc(NCCN2CCCC2)nc(OC)c1NC(=O)c1ccc(Cc2cc3c(cc2C)C(C)(C)OC3(C)C)o1` [Example D23, N-{4,6-Dimethoxy-2-[(2-pyrrolidin-1-ylethyl)amino]-pyrimidin-5-yl}-5-[(1,1,3,3,6-pentamethyl-1,3-dihydro-2-benzofuran-5-yl)methyl]-2-furamide Acetate], the Ki in [3] was found to be 1.6 nM; in data set [5] it was 0.92 nM; in [6], 1.7 nM.

Regarding “Ac-D-2-Nal-p-chloro-D-Phe-β-(3-pyridyl)-D-Ala-Ser-Lys(nicotinoyl)-D-Lys(nicotinoyl)-Leu-Lys(isopropyl)-Pro-D-Ala-NH2 [Antide]”, the “ability to inhibit 125I-GnRH-A binding to GGH3 cells” value in data set [10] was “blocked”.

“pGlu-His-Trp-Ser-Tyr-Gly-Leu-Arg-Pro-Gly-NH2 [GnRH]”: in data set [10], the “ability to inhibit 125I-GnRH-A binding to GGH3 cells” value is “blocked”.
